Reference: patent publication US8735414B2 (priority 2009, dated 2014)

How the values were obtained:
[1] = tested on: bicistronic HCV replicon (replicon RNA, GenBank Accession No. AJ242654); assay: HCV Replicon Assay; type: cell-based; details: Hepatitis C virus, 72 h, read-out: Replicon IC50

Structure (SMILES) | IC50 [1] [nM] | melting point [°C]
N#Cc1c(-c2ccc(NS(=O)(=O)C3CC3)cn2)n(C2CCCCC2)c2ccc(Cl)cc12 [compound 298, N-[6-(5-chloro-3-cyano-1-cyclohexyl-1H-indol-2-yl)pyridin-3-yl]cyclopropanesulfonamide] | 500 to 2000 | 230 to 235
Cc1cc2c(cc1F)c(C#N)c(-c1ccc(S(=O)(=O)N[C@@H](C)C(F)(F)F)cn1)n2-c1ccc(S(N)(=O)=O)s1 [compound 1034, 6-[3-cyano-5-fluoro-6-methyl-1-(5-sulfamoylthiophen-2-yl)-1H-indol-2-yl]-N-[(2S)-1,1,1-trifluoropropan-2-yl]pyridine-3-sulfonamide] | 500 to 2000 | 131.6 to 137.7
C[C@H](NS(=O)(=O)c1ccc(-c2c(C#N)c3ccc(OC(F)(F)F)cc3n2C2CCCC2)nc1)C1CC1 [compound 320, 6-[3-cyano-1-cyclopentyl-6-(trifluoromethoxy)-1H-indol-2-yl]-N-[(1S)-1-cyclopropylethyl]pyridine-3-sulfonamide] | 500 to 2000 | 133 to 134
N#Cc1c(-c2ncc(S(=O)(=O)NC(CF)CF)cn2)n(C2CCC2)c2cc(F)ccc12 [compound 163, 2-(3-cyano-1-cyclobutyl-6-fluoro-1H-indol-2-yl)-N-(1,3-difluoropropan-2-yl)pyrimidine-5-sulfonamide] | 500 to 2000 | 193 to 195
C[C@H](NS(=O)(=O)c1cnc(-c2c(C#N)c3cc(F)ccc3n2C2CCCC2)nc1)C1CC1 [compound 530, 2-(3-cyano-1-cyclopentyl-5-fluoro-1H-indol-2-yl)-N-[(1S)-1-cyclopropylethyl]pyrimidine-5-sulfonamide] | < 500 | 184 to 186
CCCn1c(-c2ncc(S(=O)(=O)N[C@@H](C)C3CC3)cn2)c(C#N)c2ccc(OC(F)F)cc21 [compound 208, 2-[3-cyano-6-(difluoromethoxy)-1-propyl-1H-indol-2-yl]-N-[(1S)-1-cyclopropylethyl]pyrimidine-5-sulfonamide] | < 500 | 152 to 154
CC(C)n1c(-c2ccc(S(=O)(=O)N[C@@H](C)C3CC3)cn2)c(C#N)c2cc(F)ccc21 [compound 604, 6-[3-cyano-5-fluoro-1-(propan-2-yl)-1H-indol-2-yl]-N-[(1S)-1-cyclopropylethyl]pyridine-3-sulfonamide] | < 500 | 138 to 143
C[C@H](NS(=O)(=O)c1ccc(-c2c(C#N)c3cc(Cl)ccc3n2C2CCCCC2)nc1)C(F)(F)F [compound 462, 6-(5-chloro-3-cyano-1-cyclohexyl-1H-indol-2-yl)-N-[(2S)-1,1,1-trifluoropropan-2-yl]pyridine-3-sulfonamide] | < 500 | 220 to 222
Cc1cc2c(C#N)c(-c3ccc(S(=O)(=O)N[C@@H](C)C(F)(F)F)cn3)n(C3CCC3)c2cc1Cl [compound 506, 6-(6-chloro-3-cyano-1-cyclobutyl-5-methyl-1H-indol-2-yl)-N-[(2S)-1,1,1-trifluoropropan-2-yl]pyridine-3-sulfonamide] | < 500 | 198 to 198.5
Cc1ccc2c(c1)c(C#N)c(-c1ncc(S(=O)(=O)NC(CF)CF)cn1)n2C1CCC1 [compound 122, 2-(3-cyano-1-cyclobutyl-5-methyl-1H-indol-2-yl)-N-(1,3-difluoropropan-2-yl)pyrimidine-5-sulfonamide] | < 500 | 140 to 145
N#Cc1c(-c2ccc(S(N)(=O)=O)cn2)n(C2CCC2)c2cc(OC(F)F)c(F)cc12 [compound 722, 6-[3-cyano-1-cyclobutyl-6-(difluoromethoxy)-5-fluoro-1H-indol-2-yl]pyridine-3-sulfonamide] | < 500 | 172 to 175
COc1ccc2c(c1)c(C#N)c(-c1ncc(S(=O)(=O)N[C@@H](C)C3CC3)cn1)n2C1CCC1 [compound 570, 2-(3-cyano-1-cyclobutyl-5-methoxy-1H-indol-2-yl)-N-[(1S)-1-cyclopropylethyl]pyrimidine-5-sulfonamide] | 500 to 2000 | 182 to 183
COc1ccc2c(C#N)c(-c3ccc(S(=O)(=O)N[C@H](C)C(F)(F)F)cn3)n(C3CCC3)c2c1 [compound 428, 6-(3-cyano-1-cyclobutyl-6-methoxy-1H-indol-2-yl)-N-[(2R)-1,1,1-trifluoropropan-2-yl]pyridine-3-sulfonamide] | < 500 | 206 to 212
CCc1cc2c(cc1F)c(C#N)c(-c1ccc(S(=O)(=O)N[C@@H](C)C(F)(F)F)cn1)n2-c1cccc(Cl)c1 [compound 1018, 6-[1-(3-chlorophenyl)-3-cyano-6-ethyl-5-fluoro-1H-indol-2-yl]-N-[(2S)-1,1,1-trifluoropropan-2-yl]pyridine-3-sulfonamide] | < 500 | 195 to 198
Cc1cc2c(cc1F)c(C(N)=O)c(-c1ccc(S(=O)(=O)NC(C)(C)C)cn1)n2C1CCC1 [compound 800, 2-[5-(tert-butylsulfamoyl)pyridin-2-yl]-1-cyclobutyl-5-fluoro-6-methyl-1H-indole-3-carboxamide] | < 500 | 189 to 193
CC(NS(=O)(=O)c1cnc(-c2c(C#N)c3ccc(OC(F)F)cc3n2C2CCC2)nc1)C(F)(F)F (stereo not drawn) [compound 128, 2-[3-cyano-1-cyclobutyl-6-(difluoromethoxy)-1H-indol-2-yl]-N-(1,1,1-trifluoropropan-2-yl)pyrimidine-5-sulfonamide] | < 500 | 227 to 229
Cc1cc2c(cc1F)c(C#N)c(-c1ncc(S(=O)(=O)N[C@@H](C)C(F)(F)F)cc1C)n2-c1ncccn1 [compound 888, 6-[3-cyano-5-fluoro-6-methyl-1-(pyrimidin-2-yl)-1H-indol-2-yl]-5-methyl-N-[(2S)-1,1,1-trifluoropropan-2-yl]pyridine-3-sulfonamide] | < 500 | 201 to 204
COc1ccc2c(c1)c(C#N)c(-c1ncc(S(=O)(=O)NC(CF)CF)cn1)n2C1CCC1 [compound 551, 2-(3-cyano-1-cyclobutyl-5-methoxy-1H-indol-2-yl)-N-(1,3-difluoropropan-2-yl)pyrimidine-5-sulfonamide] | < 500 | 217 to 219
CC(C)NS(=O)(=O)c1ccc(-c2c(C#N)c3ccc(OC(F)F)cc3n2C2CC2)cn1 [compound 39, 5-[3-cyano-1-cyclopropyl-6-(difluoromethoxy)-1H-indol-2-yl]-N-(propan-2-yl)pyridine-2-sulfonamide] | 2000 to 5000 | 209 to 210
N#Cc1c(-c2ncc(S(=O)(=O)NC(CF)CF)cn2)n(C2CCCC2)c2cc(OC(F)(F)F)ccc12 [compound 178, 2-[3-cyano-1-cyclopentyl-6-(trifluoromethoxy)-1H-indol-2-yl]-N-(1,3-difluoropropan-2-yl)pyrimidine-5-sulfonamide] | < 500 | 181 to 187
Cc1ccc2c(C#N)c(-c3ncc(S(=O)(=O)N[C@@H](C)C4CC4)cn3)n(CC3CC3)c2c1 [compound 203, 2-[3-cyano-1-(cyclopropylmethyl)-6-methyl-1H-indol-2-yl]-N-[(1S)-1-cyclopropylethyl]pyrimidine-5-sulfonamide] | < 500 | 205 to 207
